From PubChem BioAssay AID2060502 (Molecular Pharmacology Branch, DTP, NCI, 2025)

System: 885724-159-R-J1-PDC complex spheroid viability
Test: Anticancer human tumor 885724-159-R-J1-PDC patient-derived pancreatic adenocarcinoma cell line growth inhibition [GQUAD]
Details: for IC50: curve of first compound; for viability, T/C: stronger effect = lower value
From the text: DNA G-quadruplex Stabilizer Agents in Combinations in Complex Spheroids
A high-throughput screen of multi-cell type tumor spheroids was designed to identify active combinations of DNA G-quadruplex stabilizer agents and targeted small molecules. Complex spheroids include a stromal component modeled by human endothelial cells (HUVEC) and fibroblasts modeled by human mesenchymal stem cells (MSCs). The concentration ranges selected for each drug and investigational agent were based upon clinically achievable concentrations if the clinical Cmax of the agent was known.
Compounds. The drugs and investigational agents: pidnarulex (CX-5461; NSC782164), APTO-253 (NSC789042), BRACO-19 (NSC847499), peposertib (NSC802822), ceralasertib (NSC780249), elimusertib (NSC800525), camonsertib (NSC841442), AZD-1390 (NSC803789), olaparib (NSC753686), talazoparib (NSC767125), ART-558 (NSC835418), sotorasib (NSC818433), MRTX-1133 (NSC836407), SN-38 (NSC673596), topotecan (NSC609699), etoposide (NSC141540), doxorubicin (NSC123127), gemcitabine (NSC613327), 5-fluorouracil (NSC19893), paclitaxel (NSC125973), vemurafenib (NSC761431), panobinostat (NSC761190), R-306465 (JNJ-16241199; NSC773264), adavosertib (NSC754352), TP-3654 (NSC805149), carboplatin (NSC241240), KSQ-4279 (NSC840948), and staurosporine (NSC755774) were obtained from the National Cancer Institute (NCI) Developmental Therapeutics Program Chemical Repository (34). The FDA-approved anticancer drug set is available from the NCI Developmental Therapeutics Program. […] The stock solutions were prepared in dimethyl sulfoxide (DMSO, Sigma-Aldrich, St. Louis, MO, cat. D2650) at 800-fold the tested concentration and stored at -70 degrees C prior to their use. All drugs and investigational agents were tested over a range starting from a high concentration at or near the clinical Cmax and decreasing in half-log increments. If the clinical Cmax for an agent had not been determined, the highest concentration tested was 10 microM.
2.3 Cell Culture. All cells were maintained in an incubator at 37 degrees C and 5% CO2 with 95% humidity. The PDC lines were cultured according to standard operating procedures established by the NCI PDMR. All PDCs were thawed and cultured in Matrigel-coated flasks prepared with a working solution of 1X Ham's F-12 nutrient mix, without supplementation (Invitrogen, cat. 11765054), 100 U/mL penicillin-streptomycin (Invitrogen, cat. 15140122), and 2.5% Matrigel (Corning Inc., cat. 354248) for the first three passages. The 857933-349-R-J2-PDC line was cultured in 6C/Colon 1B media, which includes advanced DMEM/F-12 (Thermo Fisher Scientific, cat. 12634028), 10 mM HEPES (Thermo Fisher Scientific, cat. 15630080), 1X GlutaMAX supplement (Thermo Fisher Scientific, cat. 35050061), 0.1 mg/mL primocin (InvivoGen, cat. ant-pm-2), 10% defined fetal bovine serum, heat inactivated (HyClone Laboratories Inc., cat. SH30070.03HI), 50% L-WRN conditioned media (ATCC, cat. CRL-3276), 1.25 mM N-Acetyl-L-cysteine (Sigma-Aldrich, cat. A9165), 10 mM nicotinamide (Sigma-Aldrich, cat. N0636), 1X B-27 supplement (Thermo Fisher Scientific, cat. 17504044), 1X N-2 supplement (Thermo Fisher Scientific, cat. 17502048), 10 microM Y-27632 dihydrochloride (Tocris Bioscience, cat. 1254), and 50 ng/mL human EGF recombinant protein (Thermo Fisher Scientific, cat. PHG0311). The 485176-168-R4-J1-PDC line was cultured in Panc media, which includes all 6C/Colon 1B media components plus 100 ng/mL human FGF-10 (Thermo Fisher Scientific, cat. 100-26), 500 nM SB-431542 (Selleckchem, cat. S1067), and gastrin (Tocris, cat. 3006).
[…]
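Further: spheroids exposed to agents for seven days before readout.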
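Wherever viability, T/C is given: percent of vehicle control viability where 100% = DMSO wells.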

Structure (SMILES): O=C(NO)c1cnc(N2CCN(S(=O)(=O)c3ccc4ccccc4c3)CC2)nc1 + CN(C)c1ccc(Nc2c3ccc(NC(=O)CCN4CCCC4)cc3nc3cc(NC(=O)CCN4CCCC4)ccc23)cc1
- IC50 (second compound 0.0316 µM): 683 nM
- IC50 (second compound 0.1 µM): 702 nM
- IC50 (second compound 0.316 µM): 579 nM
- IC50 (second compound 1 µM): 500 nM
- IC50 (second compound 3.16 µM): 519 nM
- IC50 (second compound 10 µM): 218 nM
- viability, T/C (second compound 0.0316 µM, first compound 0.0316 µM): 91.8%
- viability, T/C (second compound 0.0316 µM, first compound 0.1 µM): 117%
- viability, T/C (second compound 0.0316 µM, first compound 0.316 µM): 78.7%
- viability, T/C (second compound 0.0316 µM, first compound 1 µM): 35.9%
- viability, T/C (second compound 0.0316 µM, first compound 3.16 µM): 0.8%
- viability, T/C (second compound 0.0316 µM, first compound 10 µM): 0.93%
- viability, T/C (second compound 0.1 µM, first compound 0.0316 µM): 106%
- viability, T/C (second compound 0.1 µM, first compound 0.1 µM): 100%
- viability, T/C (second compound 0.1 µM, first compound 0.316 µM): 86.5%
- viability, T/C (second compound 0.1 µM, first compound 1 µM): 34.5%
- viability, T/C (second compound 0.1 µM, first compound 3.16 µM): 0.82%
- viability, T/C (second compound 0.1 µM, first compound 10 µM): 0.44%
- viability, T/C (second compound 0.316 µM, first compound 0.0316 µM): 83.7%
- viability, T/C (second compound 0.316 µM, first compound 0.1 µM): 91.2%
- viability, T/C (second compound 0.316 µM, first compound 0.316 µM): 75.6%
- viability, T/C (second compound 0.316 µM, first compound 1 µM): 26.5%
- viability, T/C (second compound 0.316 µM, first compound 3.16 µM): 1.07%
- viability, T/C (second compound 0.316 µM, first compound 10 µM): 1.4%
- viability, T/C (second compound 1 µM, first compound 0.0316 µM): 80.4%
- viability, T/C (second compound 1 µM, first compound 0.1 µM): 68.9%
- viability, T/C (second compound 1 µM, first compound 0.316 µM): 64.2%
- viability, T/C (second compound 1 µM, first compound 1 µM): 29.9%
- viability, T/C (second compound 1 µM, first compound 3.16 µM): 1.26%
- viability, T/C (second compound 1 µM, first compound 10 µM): 0.73%
- viability, T/C (second compound 3.16 µM, first compound 0.0316 µM): 71.7%
- viability, T/C (second compound 3.16 µM, first compound 0.1 µM): 64.6%
- viability, T/C (second compound 3.16 µM, first compound 0.316 µM): 76.8%
- viability, T/C (second compound 3.16 µM, first compound 1 µM): 22%
- viability, T/C (second compound 3.16 µM, first compound 3.16 µM): 1.42%
- viability, T/C (second compound 3.16 µM, first compound 10 µM): 0.69%
- viability, T/C (second compound 10 µM, first compound 0.0316 µM): 61%
- viability, T/C (second compound 10 µM, first compound 0.1 µM): 59%
- viability, T/C (second compound 10 µM, first compound 0.316 µM): 43.7%
- viability, T/C (second compound 10 µM, first compound 1 µM): 26.7%
- viability, T/C (second compound 10 µM, first compound 3.16 µM): 1.36%
- viability, T/C (second compound 10 µM, first compound 10 µM): 2.05%
